# US10544104B2, “Compositions and methods for treating toxoplasmosis, cryptosporidiosis, and other apicomplexan protozoan related diseases” (University of Washington through its Center for …, priority 2010, dated 2020)
# Entries after “also recorded” stand apart in the source; their conditions may differ. Like-named read-outs stand apart in the source and are kept apart here.
# Assays:
# CpCDPK1 = CpCDPK1 (Cryptosporidium parvum (strain Iowa II), UniProt A3FQ16); type: biochemical
# TgCDPK1 [1] = target: T1, TgCDPK1 (Toxoplasma gondii, UniProt Q9BJF5); type: biochemical; details: read-out: Km of substrates
# TgCDPK1 [2] = target: T1, TgCDPK1; type: biochemical; details: read-out: Km for ATP
# in vitro [3] = details: human
# PfCDPK1 = PfCDPK1 (Plasmodium falciparum (isolate 3D7), UniProt P62344); experiment: biochemical; details: read-out: PfCDPK1 (% inhibition @ 3 uM)
# HL-60 = experiment: Growth inhibition / toxicity, promyelocytic leukemia HL-60
# CRL8155 = experiment: Growth inhibition / toxicity, human lymphocyte CRL8155
# SF539 = experiment: Growth inhibition / toxicity, glioma derived SF539
# PfCDPK4 = PfCDPK4 (Plasmodium falciparum (isolate 3D7), UniProt Q8IBS5); experiment: biochemical; details: read-out: PfCDPK4 (% inhibition @ 3 uM)
# in vitro [4] = details: human; remark: listed apart in the source
# in vitro [5] = details: human; remark: listed apart in the source
# in vitro [6] = details: human; remark: listed apart in the source
# HC 2998 = experiment: Growth inhibition / toxicity, colorectal carcinoma HC 2998
# C. parvum [7] = experiment: C. parvum infection of HCT-8 cells (rRNA RT-PCR); type: cell-based, Cryptosporidium parvum
# [8] = Solubility in buffers of various pH; type: physicochemical
# P. falciparum = experiment: microbe, parasite or virus in culture; details: Plasmodium falciparum, read-out: Proliferation Blocking P. falciparum (EC50, μM)
# C. parvum [9] = experiment: Immunosuppressed (SCID-beige) mouse C. parvum model; type: in vivo, Cryptosporidium parvum; details: oral gavage once a day, days 3-7 and 10-14
# Method: Shown are mean of the parasite numbers detected in 25 mg of stool from each mouse, by qRT-PCR.
# [10] = test system: P. falciparum NF54 gametocytes; type: cell-based, Plasmodium falciparum
# P. berghei = test system: P. berghei; parameters: species or system Plasmodium berghei; details: in vivo
# [11] = test system: P. berghei expressing PfCDPK4-2x-myc; parameters: species or system Plasmodium berghei; details: in vivo
# human fibroblast = experiment: Fibroblast cytotoxicity / replication (Alamar blue); type: cell-based; details: concentration at which toxicity (T) was observed
# T. gondii = experiment: microbe, parasite or virus in culture; details: Toxoplasma gondii, read-out: Parasite Proliferation Assay EC50 T. gondii
# Chain of CpCDPK1 (A3FQ16 1-538): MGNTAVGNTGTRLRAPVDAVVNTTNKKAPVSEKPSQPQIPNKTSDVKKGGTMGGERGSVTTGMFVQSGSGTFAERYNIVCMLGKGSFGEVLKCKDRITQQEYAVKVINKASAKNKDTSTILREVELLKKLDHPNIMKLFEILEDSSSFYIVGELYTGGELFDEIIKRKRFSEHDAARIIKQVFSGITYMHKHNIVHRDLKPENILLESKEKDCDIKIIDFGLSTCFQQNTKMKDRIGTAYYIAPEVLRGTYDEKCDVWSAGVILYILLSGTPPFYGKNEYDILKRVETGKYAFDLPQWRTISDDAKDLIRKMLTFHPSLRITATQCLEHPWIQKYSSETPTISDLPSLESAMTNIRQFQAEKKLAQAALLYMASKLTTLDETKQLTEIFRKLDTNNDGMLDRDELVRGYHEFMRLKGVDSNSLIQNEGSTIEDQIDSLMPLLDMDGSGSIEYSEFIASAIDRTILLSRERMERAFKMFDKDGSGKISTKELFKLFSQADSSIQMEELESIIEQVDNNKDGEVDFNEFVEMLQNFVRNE
# T1 sequence (Q9BJF5 1-507): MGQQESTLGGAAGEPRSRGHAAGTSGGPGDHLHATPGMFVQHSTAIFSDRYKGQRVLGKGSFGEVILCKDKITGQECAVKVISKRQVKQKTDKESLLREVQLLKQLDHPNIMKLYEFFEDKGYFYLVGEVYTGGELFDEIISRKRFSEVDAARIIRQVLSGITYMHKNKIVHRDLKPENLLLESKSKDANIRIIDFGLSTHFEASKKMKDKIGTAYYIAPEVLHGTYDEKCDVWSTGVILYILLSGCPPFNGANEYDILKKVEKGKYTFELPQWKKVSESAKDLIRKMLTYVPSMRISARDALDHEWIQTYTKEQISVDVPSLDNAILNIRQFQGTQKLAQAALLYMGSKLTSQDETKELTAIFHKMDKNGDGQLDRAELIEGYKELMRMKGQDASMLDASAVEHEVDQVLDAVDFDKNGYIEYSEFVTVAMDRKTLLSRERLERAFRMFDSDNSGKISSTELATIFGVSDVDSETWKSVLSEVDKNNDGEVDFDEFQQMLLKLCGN
molecule,measurement,setting,value
"6-(4-amino-1-(piperidin-4-ylmethyl)-1H- pyrazolo[3,4-d]pyrimidin-3-yl)-N,N- dimethylquinolin-2-amine [Compound 68]",IC50,CpCDPK1,> 3 µM
Nc1ncnc2c1ncn2[C@@H]1O[C@H](COP(=O)(O)OP(=O)(O)OP(=O)(O)O)[C@@H](O)[C@H]1O [ATP],Km,TgCDPK1 [1],10 µM
same,Km,TgCDPK1 [2],10 µM
same,Km,CpCDPK1; read-out: Km for ATP,9 µM
"CC(C)(C)n1nc(-c2cccc3ccccc23)c2c(N)ncnc21 [Compound 1, 1-tert-butyl-3-(naphthalen-1-yl)-1H-pyrazolo[3,4-d]pyrimidin-4-amine]",GI50,in vitro [3],> 10 µM
same,inhibition at 3 µM,PfCDPK1,51%
same,"Cell Toxicity HL60, % at 25 μM",HL-60,<30% at 25 μM
same,"Cell Toxicity CRL8155, % at 25 μM",CRL8155,<30% at 25 μM
same,"Cell Toxicity SF539, % at 25 μM",SF539,<30% at 25 μM
same,inhibition at 3 µM,PfCDPK4,25%
same,GI50,in vitro [4],> 10 µM
same,GI50,in vitro [5],> 10 µM
same,GI50,in vitro [6],> 10 µM
same,"Cell Toxicity HCC2998, % at 25 μM",HC 2998,<30% at 25 μM
"CC(C)(C)n1nc(-c2ccc3ccccc3c2)c2c(N)ncnc21 [Compound 2, 1-tert-butyl-3-(naphthalen-2-yl)-1H-pyrazolo[3,4-d]pyrimidin-4-amine]",GI50,in vitro [3]; SF539 glioma-derived cells,[…]
same,C. parvum parasite levels in HCT-8 cells,C. parvum [7]; inhibitor at time of infection and one hour after infection,most potent effect
"COc1ccc2cc(-c3nn(CC4CCNCC4)c4ncnc(N)c34)ccc2c1 [Compound 28, 3-(6-methoxynaphthalen-2-yl)-1-(piperidin-4-ylmethyl)-1H-pyrazolo[3,4-d]pyrimidin-4-amine]",Experimental Solubility pH 7.4,[8],56 μM
same,EC50,P. falciparum,31.9 µM
"CCOc1ccc2cc(-c3nn(CC4CCNCC4)c4ncnc(N)c34)ccc2c1 [Compound 29, 3-(6-ethoxynaphthalen-2-yl)-1-(piperidin-4-ylmethyl)-1H-pyrazolo[3,4-d]pyrimidin-4-amine]",parasites in stool at the end of treatment (qRT-PCR),C. parvum [9],not detected
same,rebound of parasite burden after treatment,C. parvum [9],slowly
same,Experimental Solubility pH 7.4,[8],49 μM
same,P. falciparum exflagellation,[10],complete suppression; also recorded: prevented the exflagellation
same,"exflagellation events, repeat experiment",[10],suppressed completely
same,infection of A. stephensi midguts,[10],prevented
same,infective sporozoites in salivary glands,[10],complete absence
same,prevalence of oocyst infections,[10],reduced the prevalence
same,exflagellation,P. berghei,sufficient to block exflagellation
same,formation of oocysts in A. stephensi fed on treated mice,P. berghei,completely blocked
same,impact on asexual parasitaemia or gametocyte rates,P. berghei,no impact
same,duration of complete suppression of exflagellation,[11],14 h
same,exflagellation 20 hours after dosing,[11],some exflagellation was observed
same,exflagellation in blood samples from treated mice,[11],complete suppression; also recorded: completely suppressed
CC(C)(C)n1nc(-c2ccc(Cl)cc2)c2c(N)ncnc21 [Compound 146],inhibition at 3 µM,PfCDPK1,99%
same,inhibition at 3 µM,PfCDPK4,95%
"CCOc1ccc2cc(-c3nn(CC4CCN(C)CC4)c4ncnc(N)c34)ccc2c1 [Compound 150, 3-(6-ethoxynaphthalen-2-yl)-1-((1-methylpiperidin-4-yl)methyl)-1H-pyrazolo[3,4-d]pyrimidin-4-amine]",Observed HFF Toxicity (T at concentration),human fibroblast,T at 25 μM
same,parasites in stool at the end of treatment (qRT-PCR),C. parvum [9],not detected
same,rebound of parasite burden after treatment,C. parvum [9],not
same,EC50,T. gondii,0.137 µM
same,EC50,"C. parvum [7]; Cryptosporidium parvum, HCT-8, read-out: Parasite Proliferation Assay EC50 C. parvum",0.54 µM
"CC(C)(C)n1nc(-c2ccc3ccccc3c2)c2c(N)ncnc21 [NA-PP2, reference compound]",formation of oocysts in A. stephensi fed on treated mice,P. berghei,hundreds of oocysts per mosquito
"NC[C@@H]1O[C@H](O[C@H]2[C@@H](O)[C@H](O[C@@H]3[C@@H](O)[C@H](N)C[C@H](N)[C@H]3O[C@H]3O[C@H](CO)[C@@H](O)[C@H](O)[C@H]3N)O[C@@H]2CO)[C@H](N)[C@@H](O)[C@@H]1O [Paromomycin, reference compound]",parasites in stool at the end of treatment (qRT-PCR),C. parvum [9],not detected
same,rebound of parasite burden after treatment,C. parvum [9],quickly rebounded
